Source: PubChem BioAssay (NCI)
Values joined by “and” are separate entries in the source; they are usually repeats but may differ in a detail not shown here. Equal entries are not always repeated.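 Five compound concentrations were applied to cells in 96-well plates for 48 hours; endpoints were derived by simple linear interpolation of the resulting dose-response curve. Abbreviation: GI50, concentration required for 50% inhibition of growth. The concentration for full growth arrest is given as TGI.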

System: MDA-MB-468 breast
Assay: NCI tumour cell line growth inhibition, 48 h

Structure (SMILES): CN(C)C(=S)N=Nc1c(O)[nH]c2ccccc12
- GI50: 482 nM
- TGI: 3.46 µM

Structure (SMILES): CC(=O)Oc1ccccc1C(=O)Nc1cc(C(C)C)ccc1C
- GI50: 2490 nM
- TGI: 8.38 µM

Structure (SMILES): c1cnc2[nH]cc(-c3csc(-c4cn(CCCCN5CCOCC5)c5ccccc45)n3)c2c1
- GI50: 2070 nM
- TGI: 3.99 µM

Structure (SMILES): Fc1cccc(COc2ccc(Nc3ncnc4cc(-c5ccc[nH]5)sc34)cc2Cl)c1
- GI50: 44.6 nM
- TGI: 0.306 µM

Structure (SMILES): COC(=O)CNC(=O)[C@@H](OC)[C@@H]1Cc2cc3cc(OC4CC(OC5CC(O)C(O)C(C)O5)C(O)C(C)O4)c(C)c(O)c3c(O)c2C(=O)[C@H]1OC1CC(OC2CC(OC3CC(C)(O)C(O)C(C)O3)C(O)C(C)O2)C(O)C(C)O1 (stereo not given in full)
- GI50: 162 nM
- TGI: 1.31 µM

Structure (SMILES): C#CC[C@@H]1C[C@]2(C)[C@H]3CC=C4[C@H]5CC(C)(C)CC[C@]5(C(=O)NCCCCN)CC[C@@]4(C)[C@]3(C)CC[C@H]2C(C)(C)[C@H]1OC(C)=O
- GI50: 1710 nM
- TGI: 3.27 µM

Structure (SMILES): COc1cc(Nc2nc(N[C@H]3CCCC[C@@H]3N)nc3cc[nH]c(=O)c23)cc(OC)c1
- GI50: 260 nM
- TGI: 0.854 µM

Structure (SMILES): O=C(CCl)N1c2ccccc2Sc2c1ccc1ccccc21
- GI50: 2090 nM
- TGI: 3.95 µM

Structure (SMILES): O=C1/C(=C/c2ccc(O)cc2)COc2ccc(-c3ccccc3)cc21
- GI50: 3320 nM
- TGI: 11.4 µM

Structure (SMILES): C[C@H]1[C@H](C)CC[C@]2(C(=O)O)CC[C@]3(C)C(=CC[C@@H]4[C@@]5(C)C/C(=C/c6cccnc6)[C@H](O)C(C)(C)[C@@H]5CC[C@]43C)[C@H]12
- GI50: 19800 nM
- TGI: 80.1 µM

Structure (SMILES): C=C1C(=O)O[C@H]2[C@H]1CC/C(COC(=O)N1CCC[C@H]1C(=O)Nc1ccc(OC)c(C(N)=O)c1O)=C\CC[C@@]1(C)O[C@@H]21
- GI50: 1060 nM
- TGI: 3.46 µM

Structure (SMILES): CC(C)(C)c1ccc(S(=O)(=O)N[C@H]2CC[C@H]3[C@@H]4CCc5cc(OS(=O)(=O)O)ccc5[C@H]4CC[C@]23C)cc1
- GI50: 2050 nM
- TGI: 5.59 µM

Structure (SMILES): CC(=O)OCC1OC(n2ccc(=O)[nH]c2=O)C(OC(C)=O)C1OC(C)=O (stereo not given)
- GI50: > 100000 nM
- TGI: > 100 µM

Structure (SMILES): CC(CNC(Cc1ccccc1)c1ccccc1)NC(Cc1ccccc1)c1ccccc1 (stereo not given)
- GI50: 1740 nM
- TGI: 3.67 µM

Structure (SMILES): COc1ccc(-c2cn(-c3ccccc3)c(-c3ccccc3)n2)cc1OC
- GI50: 4900 nM
- TGI: 21.9 µM

Structure (SMILES): Cc1nc2sc(C(=O)Nc3ccccc3)c(N)c2cc1C(=O)/C=C/c1ccccc1
- GI50: 1730 nM
- TGI: 3.82 µM

Structure (SMILES): C[C@@H]1CN(CC(=O)N2CC(C)(C)c3nc(CO)c(Cc4ccc(F)cc4)cc32)[C@@H](CN2CCOC[C@H]2C)CN1
- GI50: 10900 nM
- TGI: 27.9 µM

Structure (SMILES): OCc1ccc(-c2nn(Cc3ccccc3)c3ccccc23)o1
- GI50: 110 nM
- TGI: 0.287 µM

Structure (SMILES): CNC(=O)c1cc(N2CCc3cc(NC(=O)Nc4ccc(N5CCOCC5)c(C(F)(F)F)c4)ccc32)ccn1
- GI50: 5220 nM
- TGI: > 33.3 µM

Structure (SMILES): c1n[nH]cc1-c1nc2ccc3[nH]ncc3c2c2c1CCCC2
- GI50: 1360 nM
- TGI: 3.6 µM

Structure (SMILES): COc1cc[nH]c1/C=C1\C(=O)Nc2ccc(F)c(I)c21
- GI50: > 5390 nM
- TGI: > 25 µM

Structure (SMILES): C=C1CC[C@@H]2[C@](C)(COC(C)=O)[C@H](OC(C)=O)CC[C@@]2(C)[C@@H]1CC(Nc1ccc(S(=O)(=O)Nc2nccc(C)n2)cc1)C1=CCOC1=O (stereo not given in full)
- GI50: 1990 nM
- TGI: 4.31 µM

Structure (SMILES): CCN(Cc1ccccc1OC)c1ccc(CO)c(Cl)c1
- GI50: 37.2 nM
- TGI: 0.214 µM

Structure (SMILES): Cc1cc(C(C#N)c2ccc(Cl)cc2)c(Cl)cc1NC(=O)c1cc(I)cc(I)c1O (stereo not given)
- GI50: 4310 nM and 15300 nM
- TGI: 18 µM and 30 µM

Structure (SMILES): CC[C@H](CC#N)OC(=O)N[C@@H](C)c1cccc(NC(=O)Nc2ccc(-c3cnco3)c(OC)c2)c1
- GI50: 531 nM
- TGI: 18.2 µM

Structure (SMILES): Cn1ccnc1C(=O)/C=C/c1ccc(CC(=O)Nc2ccccc2)cc1
- GI50: 1710 nM
- TGI: 7.11 µM

Structure (SMILES): CN(CCOc1ccc(C#N)cc1)CCOc1ccc(C#N)cc1
- GI50: 27500 nM
- TGI: > 100 µM

Structure (SMILES): CC(=C(c1ccc(OCCN(C)C)cc1)c1ccc(OCCN(C)C)cc1)c1ccc(Cl)cc1
- GI50: 827 nM
- TGI: 3.24 µM

Structure (SMILES): CN(C)c1ccc(/C=C/C=C(/C#N)c2ccccc2)cc1
- GI50: 17500 nM
- TGI: 67.7 µM

Structure (SMILES): Oc1ccc(CCCCCCc2ccc(O)cc2)cc1
- GI50: 12700 nM
- TGI: 32.9 µM

Structure (SMILES): CN(C)c1ccc2cc(-c3ccccc3F)c(N)nc2c1
- GI50: 542 nM
- TGI: 12.2 µM

Structure (SMILES): CCCCCCCCCCCC[n+]1ccc(CCCCCCCCC)cc1
- GI50: 253 nM
- TGI: 0.833 µM

Structure (SMILES): Fc1ccc2[nH]c3c(NCCCN4CCOCC4)ncnc3c2c1
- GI50: 20400 nM
- TGI: > 100 µM

Structure (SMILES): ClCc1c(Cl)c(Cl)c(Cl)c(CCl)c1Cl
- GI50: 1570 nM
- TGI: 3.11 µM

Structure (SMILES): CC1OC2CC(=O)OC2C2=C1C(=O)c1c(O)c3c(c(O)c1C2=O)C1CC(O)C3(O)C(C)O1 (stereo not given)
- GI50: 229 nM
- TGI: 0.618 µM

Structure (SMILES): C[C@@H]1COCCN1c1cc(C2(S(C)(=N)=O)CC2)nc(-c2ccnc3[nH]ccc23)n1 (stereo not given in full)
- GI50: 3920 nM
- TGI: 25 µM

Structure (SMILES): CC(=O)O[C@@H]1CC2C(C)(C)CCCC2(C)C2=C1C(=O)C(C(C)C)=CC2=O (stereo not given in full)
- GI50: 1540 nM
- TGI: 3.81 µM

Structure (SMILES): CSc1ccc(/C=C2\N=C(c3ccccc3)N(c3nc4ccc(Sc5ccccc5)cc4[nH]3)C2=O)cc1
- GI50: 4440 nM
- TGI: 25.8 µM

Structure (SMILES): Nc1cc(N)c(N)cc1N
- GI50: 1800 nM
- TGI: 4.48 µM

Structure (SMILES): CCCCN(Cc1ccc(F)cc1)c1ccc(CO)c(Cl)c1
- GI50: 167 nM
- TGI: 0.449 µM
